This assay has as its target T1, Human IP6K1 (Homo sapiens, UniProt Q92551).
T1 construct: GST (N, cleaved yes); made in house; host or cells: C43 E. coli, pGEX-6P-2
Briefly: IP6K1 high-throughput screen of the Sigma LOPAC (ADP-Glo Max, single point).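 Also: final compound concentration 10µM in 5% DMSO.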 The class given is biochemical.

The mark [1] stands for this setting: Sigma LOPAC single-point screen, ADP-Glo Max raw signal per well.
[2] abbreviates: Sigma LOPAC single-point screen, Z-score from plate average and StDev.
Where [3] appears, read: LOPAC single-point screen, ADP-Glo Max raw signal per well.
Where [4] appears, read: LOPAC single-point screen, Z-score from raw signal with plate average and StDev.
The mark [5] stands for this setting: LOPAC single-point screen, Z-score against plate average and StDev.
Where [6] appears, read: LOPAC single-point screen, ADP-Glo Max luminescence raw signal per well.
[7] abbreviates: LOPAC single-point screen, Z-score relative to plate average and StDev.

T1 sequence (Q92551 whole entry): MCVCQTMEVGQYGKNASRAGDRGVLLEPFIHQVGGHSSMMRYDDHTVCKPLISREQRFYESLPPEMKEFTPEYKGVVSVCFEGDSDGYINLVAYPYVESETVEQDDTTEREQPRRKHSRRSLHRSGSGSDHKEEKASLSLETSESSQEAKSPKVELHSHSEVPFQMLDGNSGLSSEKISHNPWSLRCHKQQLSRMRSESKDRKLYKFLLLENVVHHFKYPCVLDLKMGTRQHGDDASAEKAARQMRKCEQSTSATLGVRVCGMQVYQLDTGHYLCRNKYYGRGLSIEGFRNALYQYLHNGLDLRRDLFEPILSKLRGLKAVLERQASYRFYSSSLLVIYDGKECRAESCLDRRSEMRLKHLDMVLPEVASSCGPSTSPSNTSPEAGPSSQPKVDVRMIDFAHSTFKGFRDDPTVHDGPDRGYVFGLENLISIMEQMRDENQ

On to `N[C@H](C(=O)O)c1cc(O)no1` (racemic) [(±)-Ibotenic acid], for which, under setting [1], the “Raw Signal” value was 57640. Further, under setting [2], the Z-score was 0.5455.
Turning to `CC(C)Cc1ccc(C(C)C(=O)O)cc1` (racemic) [(±)-Ibuprofen], under setting [1], the “Raw Signal” value came out at 57086. Besides, the Z-score under setting [2] came out at 0.4524.
In the same order, the values of `CC(C)NCC(O)c1ccc(O)c(O)c1.Cl` (racemic) [(±)-Isoproterenol hydrochloride] are 57305 and 0.4892.
As to `COc1ccc(CCN(C)CCCC(C#N)(c2cc(OC)c(OC)c(OC)c2)C(C)C)cc1OC.Cl` (racemic) [(±)-Methoxyverapamil hydrochloride], the “Raw Signal” value under setting [3] came to 52492. The same molecule returned a Z-score under setting [4] of -0.3195.
As to `COCCc1ccc(OCC(O)CNC(C)C)cc1.O=C(O)C(O)C(O)C(=O)O` (racemic) [(±)-Metoprolol (+)-tartrate], the “Raw Signal” value under setting [1] is given as 61286. Further, under setting [2], the Z-score worked out at 1.158.
As for `C[C@@H]1O[C@H](C[N+](C)(C)C)C[C@H]1O.[Cl-]` (racemic) [(±)-Muscarine chloride], the “Raw Signal” value under setting [3] amounted to 54548. The Z-score under setting [5] is listed as 0.02596.
As for `C=CCN1CC[C@@]2(C)c3cc(O)ccc3C[C@@H]1[C@@H]2C.Cl` (racemic) [(±)-N-Allylnormetazocine hydrochloride], the “Raw Signal” value under setting [6] amounted to 52910. Further, the Z-score under setting [7] is -0.8812.
In the case of `O=C(O)C1CCCNC1` (racemic) [(±)-Nipecotic acid], the “Raw Signal” value under setting [1] is on record as 63719. The Z-score under setting [2] was found to be 1.023.
As for `COc1cc(C(O)CN)ccc1O.Cl` (racemic) [(±)-Normetanephrine hydrochloride], the “Raw Signal” value under setting [3] was 54540. Besides, the Z-score under setting [5] is on record as 0.02461.
Take `CN1CCN(C2Cc3ccccc3Sc3ccc(Cl)cc32)CC1.O=C(O)/C=C\C(=O)O` (racemic) [(±)-Octoclothepin maleate]: the “Raw Signal” value under setting [1] is 60782. Also, the Z-score under setting [2] was determined as 1.073.
For `Cl.NCC(O)c1ccc(O)cc1` (racemic) [(±)-Octopamine hydrochloride], the “Raw Signal” value under setting [3] is reported as 52629. This molecule showed a Z-score under setting [4] of -0.2965.
On to `CCCN1CCOC2c3cc(O)ccc3OCC21.Cl` (racemic) [(±)-PD 128,907 hydrochloride], for which, under setting [6], the “Raw Signal” value turned out to be 53572. Further, the Z-score under setting [7] is reported as -0.4763.
For `CC(C)NCC(O)COc1cccc2ccccc12.Cl` (racemic) [(±)-Propranolol hydrochloride], the “Raw Signal” value under setting [3] worked out at 53827. Under setting [4], this molecule showed a Z-score of -0.09519.
In the same order, the values of `Br.C=CCN1CCc2cc(O)c(O)cc2C(c2ccc(O)cc2)C1` (racemic) [(±)-SKF 38393, N-allyl-, hydrobromide] are 54138 and -0.3664.
`Cl.Oc1cc2c(cc1O)C(c1ccccc1)CNCC2` (racemic) [(±)-SKF-38393 hydrochloride]: the “Raw Signal” value under setting [6] came to 48418. In addition, under setting [7], the Z-score is on record as -1.371.
Turning to `CC(C)NCC(O)c1ccc(NS(C)(=O)=O)cc1.Cl` (racemic) [(±)-Sotalol hydrochloride], the “Raw Signal” value under setting [3] is on record as 55236. The same molecule displayed a Z-score under setting [4] of -0.1531.
For the molecule `CCN1CCCC1CNC(=O)c1cc(S(N)(=O)=O)ccc1OC` (racemic) [(±)-Sulpiride], under setting [6], the “Raw Signal” value is 63231. Under “LOPAC single-point screen, Z-score from plate average and StDev”, this molecule registered a Z-score of 1.4.
On to `CNCC(O)c1ccc(O)cc1` (racemic) [(±)-Synephrine], for which the “Raw Signal” value under setting [3] amounted to 56579. Under setting [5], this molecule displayed a Z-score of 0.1079.
`O=C1c2c(O)cc(O)cc2OC(c2ccc(O)c(O)c2)C1O` (racemic) [(±)-Taxifolin]: under setting [1], the “Raw Signal” value is recorded as 61241. Under setting [2], this molecule came in with a Z-score of 1.0136.
As to `O=C1CCC(N2C(=O)c3ccccc3C2=O)C(=O)N1` (racemic) [(±)-Thalidomide], the “Raw Signal” value under setting [3] turned out to be 54848. The molecule further yielded a Z-score under setting [4] of -0.2284.
As to `COc1cc(C(O)C(=O)O)ccc1O` (racemic) [(±)-Vanillylmandelic acid], the “Raw Signal” value under setting [6] came to 52849. Under setting [7], this molecule returned a Z-score of -0.4708.

Source of the values: paper PMC5706701, “Development of a homogenous high-throughput assay for inositol hexakisphosphate kinase 1 activity” (PLoS ONE, 2017).
